Laboratory results as given in patent US12478619B2, “Method of treatment with milsaperidone” (Vanda Pharmaceuticals Inc., priority 2023, dated 2025).

Key:
[1] = Study 3201: serum urate in patients with acute manic episodes associated with bipolar I disorder, iloperidone vs placebo, 4 weeks; assay type: in vivo, human; conditions: for Serum urate LS Mean Change (SE) from baseline: iloperidone 24 mg/day (12 mg bid) oral, ANCOVA
Method: A multi-center, randomized, double-blind, placebo-controlled study (“Study 3201”) is performed to evaluate the safety and efficacy of iloperidone for four (4) weeks in the treatment of patients with acute manic episodes associated with bipolar I disorder. Patients in the study are randomized to orally receive either iloperidone at a dose of 24 mg/day given in a divided dose as 12 mg twice daily (bid), or matched placebo.
These increases are illustrated in FIG. 3 using solid data points.
To test the hypothesis of altered urate serum levels in association with variants in the SLC2A9 gene, whole genome sequencing is conducted from blood samples, genotype status is obtained through standard data analysis, and linear models for SLC2A9 variants are performed on urate concentration in samples collected at baseline (corrected for PCs, age, sex) and samples collected at the end of the study (EOS).

[2] = human, in vivo
Method: A study is performed to evaluate the efficacy and safety of iloperidone compared with placebo and active control (ziprasidone) in subjects with acute schizophrenia (“Study 3101”). Patients are randomized to receive one of iloperidone at a dose of 24 mg/day given in a divided dose as 12 mg twice daily (bid), active comparator ziprasidone, or placebo. […] Uric acid results are converted to SI units using the conversion 1 mg/dL=59.5 μmol/L.
Results are provided in Table 7 below, including an increase of 28.0 μmol/L for iloperidone compared to a decrease of 4.2 μmol/L in placebo groups.
Patient genotypes are obtained via a commercial 500 k SNP Gene Chip Human Mapping Array. To test the hypothesis of altered urate serum levels in association with variants in SLC2A9, Linear models for SLC2A9 variants are performed on urate at baseline levels (corrected for PCs, age, sex) followed by samples collected at end of study (EOS).

SMILES: COc1cc(C(C)=O)ccc1OCCCN1CCC(c2noc3cc(F)ccc23)CC1 [Iloperidone, 1-[4-[3-[4-(6-flouro-1,2-benzisoxazol-3-yl)-1-piperidinyl]propoxy]-3-methoxyphenyl]ethanone]
- Increase of serum urate levels ([1]; 24 mg/day given as 12 mg bid, value in mg/dL): ~0.457 mg/dL
- Serum urate LS Mean Difference (95% CI), iloperidone vs placebo ([1]; Day 7, 24 mg/day): 1.3 (−9.29, 11.88) μmol/L
- Serum urate LS Mean Change (SE) from baseline ([1]; Day 7): −2.7 (−4.07), 199 μmol/L
- Serum urate LS Mean Difference (95% CI), iloperidone vs placebo ([1]; Day 14, 24 mg/day): 15.3 (4.50, 26.15) μmol/L
- Serum urate LS Mean Change (SE) from baseline ([1]; Day 14): 12.6 (−4.28), 173 μmol/L
- Serum urate LS Mean Difference (95% CI), iloperidone vs placebo ([1]; Day 21, 24 mg/day): 21.0 (8.91, 33.18) μmol/L
- Serum urate LS Mean Change (SE) from baseline ([1]; Day 21): 19.1 (−5.24), 157 μmol/L
- Serum urate LS Mean Change (SE) from baseline ([1]; Day 28 (endpoint)): 27.2 (−4.93), 142 μmol/L
- Serum urate LS Mean Change (SE) from baseline ([1]; Day 28 (endpoint), listed as FANAPT® iloperidone): approximately 27.2 μmol/L
- Serum urate LS Mean Change (SE) from baseline ([1]; Day 28 (endpoint), listed as iloperidone): 27.2 µmol/L
- Increase in serum urate from baseline compared to placebo ([1]; Day 28, 24 mg/day): 4 fold
- Serum urate LS Mean Difference (95% CI), iloperidone vs placebo ([1]; Day 28, 24 mg/day): 27.1 (14.94, 39.20) μmol/L
- Change in serum urate from baseline (mean, observed cases) ([1]; Day 28, 24 mg/day, FIG. 3): 33.4 µmol/L
- LS Mean Change (SE) in Serum Urate ([1]; Day 28, genotype AA): 25.74 (6.53), 73 μmol/L
- Serum urate LS Mean Difference (95% CI), iloperidone vs placebo ([1]; Day 28, genotype AA): 31.91 (14.82, 49) μmol/L
- LS Mean Change (SE) in Serum Urate ([1]; Day 28, genotype AA, sex F): 25.48 (9.16), 34 μmol/L
- Serum urate LS Mean Difference (95% CI), iloperidone vs placebo ([1]; Day 28, genotype AA, sex F): 27.85 (2.93, 52.76) μmol/L
- LS Mean Change (SE) in Serum Urate ([1]; Day 28, genotype AA, sex M): 28.89 (8.7), 39 μmol/L
- Serum urate LS Mean Difference (95% CI), iloperidone vs placebo ([1]; Day 28, genotype AA, sex M): 35.52 (12.82, 58.22) μmol/L
- LS Mean Change (SE) in Serum Urate ([1]; Day 28, genotype AG): 24.62 (7.61), 51 μmol/L
- Serum urate LS Mean Difference (95% CI), iloperidone vs placebo ([1]; Day 28, genotype AG): 14.84 (−4.18, 33.86) μmol/L
- LS Mean Change (SE) in Serum Urate ([1]; Day 28, genotype AG, sex F): 0.06 (10.14), 27 μmol/L
- Serum urate LS Mean Difference (95% CI), iloperidone vs placebo ([1]; Day 28, genotype AG, sex F): −7.9 (−34.82, 19.03) μmol/L
- LS Mean Change (SE) in Serum Urate ([1]; Day 28, genotype AG, sex M): 53.41 (10.84), 24 μmol/L
- Serum urate LS Mean Difference (95% CI), iloperidone vs placebo ([1]; Day 28, genotype AG, sex M): 40.79 (14.61, 66.96) μmol/L
- LS Mean Change (SE) in Serum Urate ([1]; Day 28, genotype GG): 40.09 (12.36), 18 μmol/L
- Serum urate LS Mean Difference (95% CI), iloperidone vs placebo ([1]; Day 28, genotype GG): 56.95 (18.91, 94.99) μmol/L
- LS Mean Change (SE) in Serum Urate ([1]; Day 28, genotype GG, sex F): −0.19 (19.49), 7 μmol/L
- Serum urate LS Mean Difference (95% CI), iloperidone vs placebo ([1]; Day 28, genotype GG, sex F): 3.08 (−50.97, 57.13) μmol/L
- LS Mean Change (SE) in Serum Urate ([1]; Day 28, genotype GG, sex M): 65.61 (15.42), 11 μmol/L
- Serum urate LS Mean Difference (95% CI), iloperidone vs placebo ([1]; Day 28, genotype GG, sex M): 102.96 (48.93, 156.99) μmol/L
- Mean Change (SE) from Baseline in Serum Urate, Observed Cases ([1]; Day 28, rs7442295 genotype AA, 24 mg/day): 30.5 (50.99), 73 μmol/L
- Mean Change (SE) from Baseline in Serum Urate, Observed Cases ([1]; Day 28, rs7442295 genotype AG, 24 mg/day): 31.9 (59.39), 51 μmol/L
- Mean Change (SE) from Baseline in Serum Urate, Observed Cases ([1]; Day 28, rs7442295 genotype GG, 24 mg/day): 49.1 (60.56), 18 μmol/L
- LS Mean Change (SE) in Serum Urate ([1]; EOS (last observation carried forward), genotype AA, sex F): 14.93 (8.59), 41 μmol/L
- LS Mean Change (SE) in Serum Urate ([1]; EOS (last observation carried forward), genotype AA, sex M): 20.63 (7.29), 60 μmol/L
- LS Mean Change (SE) in Serum Urate ([1]; EOS (last observation carried forward), genotype AG, sex F): −2.27 (8.75), 39 μmol/L
- LS Mean Change (SE) in Serum Urate ([1]; EOS (last observation carried forward), genotype AG, sex M): 32.96 (8.74), 41 μmol/L
- LS Mean Change (SE) in Serum Urate ([1]; EOS (last observation carried forward), genotype GG, sex F): −6.03 (20.3), 7 μmol/L
- LS Mean Change (SE) in Serum Urate ([1]; EOS (last observation carried forward), genotype GG, sex M): 67.03 (15.38), 12 μmol/L
- Percentage of patients with serum urate above ULN ([1]; EOS, Female (ULN 394 μmol/l), rs7442295 AA): 15.0%
- Percentage of patients with serum urate above ULN ([1]; EOS, Female (ULN 394 μmol/l), rs7442295 AG): 8.1%
- Percentage of patients with serum urate above ULN ([1]; EOS, Female (ULN 394 μmol/l), rs7442295 GG): 0.0%
- Percentage of patients with serum urate above ULN ([1]; EOS, Male (ULN 453 μmol/l), rs7442295 AA): 12.3%
- Percentage of patients with serum urate above ULN ([1]; EOS, Male (ULN 453 μmol/l), rs7442295 AG): 13.5%
- Percentage of patients with serum urate above ULN ([1]; EOS, Male (ULN 453 μmol/l), rs7442295 GG): 33.3%
- Percentage of patients with serum urate above ULN ([1]; EOS, Male (ULN 453 μmol/l), rs7442295 GG, listed as iloperidone): about 33.3%
- LS Mean Change (SE) in Serum Urate ([1]; EOS, genotype AA): 16.73 (5.66), 101 μmol/L
- Serum urate LS Mean Difference (95% CI), iloperidone vs placebo ([1]; EOS, genotype AA): 18.23 (3.19, 33.28) μmol/L
- Serum urate LS Mean Difference (95% CI), iloperidone vs placebo ([1]; EOS, genotype AA, sex F): 15.97 (−6.71, 38.64) μmol/L
- Serum urate LS Mean Difference (95% CI), iloperidone vs placebo ([1]; EOS, genotype AA, sex M): 18.99 (−0.89, 38.86) μmol/L
- LS Mean Change (SE) in Serum Urate ([1]; EOS, genotype AG): 15.05 (6.29), 80 μmol/L
- Serum urate LS Mean Difference (95% CI), iloperidone vs placebo ([1]; EOS, genotype AG): 8.61 (−8.27, 25.48) μmol/L
- Serum urate LS Mean Difference (95% CI), iloperidone vs placebo ([1]; EOS, genotype AG, sex F): −1.4 (−25.85, 23.06) μmol/L
- Serum urate LS Mean Difference (95% CI), iloperidone vs placebo ([1]; EOS, genotype AG, sex M): 19.58 (−2.91, 42.08) μmol/L
- LS Mean Change (SE) in Serum Urate ([1]; EOS, genotype GG): 40.4 (12.41), 19 μmol/L
- Serum urate LS Mean Difference (95% CI), iloperidone vs placebo ([1]; EOS, genotype GG): 55.4 (18.68, 92.13) μmol/L
- Serum urate LS Mean Difference (95% CI), iloperidone vs placebo ([1]; EOS, genotype GG, sex F): 4.54 (−50.43, 59.52) μmol/L
- Serum urate LS Mean Difference (95% CI), iloperidone vs placebo ([1]; EOS, genotype GG, sex M): 88.45 (38.7, 138.21) μmol/L
- Increases in serum urate levels in iloperidone-treated patients homozygous for rs7442295 (G) ([1]; GG genotype compared with other iloperidone-treated patients): nearly twice as large
- Change in SUC relative to baseline at EOS, rs7442295-G/G vs A/G or A/A ([1]; iloperidone-treated patients, FIG. 9, panova<0.0001): significantly greater change from baseline
- Increase in percentage of male rs7442295-G/G individuals with high urate levels, baseline to end of study ([1]; male, GG, from about 8.3% at baseline): approximately 4 fold

SMILES: O=C1Cc2cc(CCN3CCN(c4nsc5ccccc45)CC3)c(Cl)cc2N1 [ziprasidone]
- Serum urate LS mean change from baseline to endpoint, ziprasidone treatment arm [2]: 13.1 µmol/L
